Read-outs that look alike come from different tables or passages of the source.
Tests used:
Experiment in all cases: Glasshouse assay for herbicidal activity (pre- and post-emergence), percentage phytotoxicity
Format in all cases: in vivo
[1] = test system: Alopecurus myosuroides (ALOMY); details: Alopecurus myosuroides
Summary of the method: (§1)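 Percent injury was estimated by eye on a scale where 0% means no damage and 100% complete damage. Ratings came 15 DAA post-emergence and 20 DAA pre-emergence, with plants held under 16 h light and 65% humidity at 24/18 °C or 20/16 °C day/night.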

Lolium perenne (LOLPE) = details: Lolium perenne
Summary of the method: as §1

Avena fatua (AVEFA) = details: Avena fatua
Summary of the method: as §1

[2] = test system: Echinochloa crus-galli (ECHCG); details: Echinochloa crus-galli
Summary of the method: as §1

[3] = post-emergence, 360 h, 250 g/ha, post-emergence, 15 DAA, visual assessment (100%=total damage, 0%=no damage), read-out: Post-emergence herbicidal activity (percentage phytotoxicity) ALOMY POST
[4] = pre-emergence, 480 h, 250 g/ha, pre-emergence, 20 DAA, visual assessment (100%=total damage, 0%=no damage), read-out: Pre-emergence herbicidal activity (percentage phytotoxicity) ALOMY PRE
[5] = post-emergence, 360 h, 250 g/ha, post-emergence, 15 DAA, visual assessment (100%=total damage, 0%=no damage), read-out: Post-emergence herbicidal activity (percentage phytotoxicity) LOLPE POST
[6] = pre-emergence, 480 h, 250 g/ha, pre-emergence, 20 DAA, visual assessment (100%=total damage, 0%=no damage), read-out: Pre-emergence herbicidal activity (percentage phytotoxicity) LOLPE PRE
[7] = post-emergence, 360 h, 250 g/ha, post-emergence, 15 DAA, visual assessment (100%=total damage, 0%=no damage), read-out: Post-emergence herbicidal activity (percentage phytotoxicity) AVEFA POST
[8] = pre-emergence, 480 h, 250 g/ha, pre-emergence, 20 DAA, visual assessment (100%=total damage, 0%=no damage), read-out: Pre-emergence herbicidal activity (percentage phytotoxicity) AVEFA PRE
[9] = post-emergence, 360 h, 250 g/ha, post-emergence, 15 DAA, visual assessment (100%=total damage, 0%=no damage), read-out: Post-emergence herbicidal activity (percentage phytotoxicity) ECHCG POST
[10] = pre-emergence, 480 h, 250 g/ha, pre-emergence, 20 DAA, visual assessment (100%=total damage, 0%=no damage), read-out: Pre-emergence herbicidal activity (percentage phytotoxicity) ECHCG PRE
[11] = post-emergence, 360 h, Rate 250 g/ha, post-emergence, assessed visually 15 DAA, 100%=total damage, 0%=no damage, read-out: Post-emergence herbicidal activity (percentage phytotoxicity) ALOMY POST
[12] = pre-emergence, 480 h, Rate 250 g/ha, pre-emergence, assessed visually 20 DAA, 100%=total damage, 0%=no damage, read-out: Pre-emergence herbicidal activity (percentage phytotoxicity) ALOMY PRE
[13] = post-emergence, 360 h, Rate 250 g/ha, post-emergence, assessed visually 15 DAA, 100%=total damage, 0%=no damage, read-out: Post-emergence herbicidal activity (percentage phytotoxicity) LOLPE POST
[14] = pre-emergence, 480 h, Rate 250 g/ha, pre-emergence, assessed visually 20 DAA, 100%=total damage, 0%=no damage, read-out: Pre-emergence herbicidal activity (percentage phytotoxicity) LOLPE PRE
[15] = post-emergence, 360 h, Rate 250 g/ha, post-emergence, assessed visually 15 DAA, 100%=total damage, 0%=no damage, read-out: Post-emergence herbicidal activity (percentage phytotoxicity) AVEFA POST
[16] = pre-emergence, 480 h, Rate 250 g/ha, pre-emergence, assessed visually 20 DAA, 100%=total damage, 0%=no damage, read-out: Pre-emergence herbicidal activity (percentage phytotoxicity) AVEFA PRE
[17] = post-emergence, 360 h, Rate 250 g/ha, post-emergence, assessed visually 15 DAA, 100%=total damage, 0%=no damage, read-out: Post-emergence herbicidal activity (percentage phytotoxicity) ECHCG POST
[18] = pre-emergence, 480 h, Rate 250 g/ha, pre-emergence, assessed visually 20 DAA, 100%=total damage, 0%=no damage, read-out: Pre-emergence herbicidal activity (percentage phytotoxicity) ECHCG PRE

| SMILES | pest or weed control at 250 g/ha [1, 3] [%] | pest or weed control at 250 g/ha [1, 4] [%] | pest or weed control at 250 g/ha (Lolium perenne (LOLPE); [5]) [%] | pest or weed control at 250 g/ha (Lolium perenne (LOLPE); [6]) [%] | pest or weed control at 250 g/ha (Avena fatua (AVEFA); [7]) [%] | pest or weed control at 250 g/ha (Avena fatua (AVEFA); [8]) [%] | pest or weed control at 250 g/ha [2, 9] [%] | pest or weed control at 250 g/ha [2, 10] [%] | pest or weed control at 250 g/ha [1, 11] [%] | pest or weed control at 250 g/ha [1, 12] [%] | pest or weed control at 250 g/ha (Lolium perenne (LOLPE); [13]) [%] | pest or weed control at 250 g/ha (Lolium perenne (LOLPE); [14]) [%] | pest or weed control at 250 g/ha (Avena fatua (AVEFA); [15]) [%] | pest or weed control at 250 g/ha (Avena fatua (AVEFA); [16]) [%] | pest or weed control at 250 g/ha [2, 17] [%] | pest or weed control at 250 g/ha [2, 18] [%] | also measured |
| --- | --- | --- | --- | --- | --- | --- | --- | --- | --- | --- | --- | --- | --- | --- | --- | --- | --- |
| Cc1cc(-c2ncc(Cl)cc2F)cc(C)c1C1C(=O)CC(CC(N)=O)C1=O (stereo not shown) [Compound B53] | 90 | 90 | 100 | 90 | 100 | 100 | 100 | 90 | – | – | – | – | – | – | – | – | – |
| Cc1cc(C)c(C2C(=O)CC(CC(=O)NCC3CCOCC3)C2=O)c(C)c1 (stereo not shown) [Compound A13] | – | – | – | – | – | – | – | – | 80 | 50 | 80 | 70 | 70 | 40 | 80 | 100 | – |
| Cc1cc(C)c(C2C(=O)CC(CC(N)=O)C2=O)c(C)c1 (stereo not shown) [Compound B8] | 80 | 80 | 90 | 100 | 100 | 90 | 100 | 90 | – | – | – | – | – | – | – | – | – |
| CC#Cc1cc(C)c(C2C(=O)CC(CC(=O)NCc3ccccc3)C2=O)c(C)c1 (stereo not shown) [Compound B185] | – | – | – | – | – | – | – | – | – | – | – | – | – | – | – | – | pest or weed control at 250 g/ha ([1]; post-emergence, 360 h, POST-emergence, rate 250 g/ha, visual score 15 DAA (100%=total damage, 0%=no damage), read-out: Post-emergence herbicidal activity (percentage phytotoxicity) ALOMY POST): 100%; pest or weed control at 250 g/ha ([1]; pre-emergence, 480 h, PRE-emergence, rate 250 g/ha, visual score 20 DAA (100%=total damage, 0%=no damage), read-out: Pre-emergence herbicidal activity (percentage phytotoxicity) ALOMY PRE): 80%; pest or weed control at 250 g/ha (Lolium perenne (LOLPE); post-emergence, 360 h, POST-emergence, rate 250 g/ha, visual score 15 DAA (100%=total damage, 0%=no damage), read-out: Post-emergence herbicidal activity (percentage phytotoxicity) LOLPE POST): 100%; pest or weed control at 250 g/ha (Lolium perenne (LOLPE); pre-emergence, 480 h, PRE-emergence, rate 250 g/ha, visual score 20 DAA (100%=total damage, 0%=no damage), read-out: Pre-emergence herbicidal activity (percentage phytotoxicity) LOLPE PRE): 70%; pest or weed control at 250 g/ha (Avena fatua (AVEFA); post-emergence, 360 h, POST-emergence, rate 250 g/ha, visual score 15 DAA (100%=total damage, 0%=no damage), read-out: Post-emergence herbicidal activity (percentage phytotoxicity) AVEFA POST): 100%; pest or weed control at 250 g/ha (Avena fatua (AVEFA); pre-emergence, 480 h, PRE-emergence, rate 250 g/ha, visual score 20 DAA (100%=total damage, 0%=no damage), read-out: Pre-emergence herbicidal activity (percentage phytotoxicity) AVEFA PRE): 60%; pest or weed control at 250 g/ha ([2]; post-emergence, 360 h, POST-emergence, rate 250 g/ha, visual score 15 DAA (100%=total damage, 0%=no damage), read-out: Post-emergence herbicidal activity (percentage phytotoxicity) ECHCG POST): 100%; pest or weed control at 250 g/ha ([2]; pre-emergence, 480 h, PRE-emergence, rate 250 g/ha, visual score 20 DAA (100%=total damage, 0%=no damage), read-out: Pre-emergence herbicidal activity (percentage phytotoxicity) ECHCG PRE): 100% |
| Cc1cc(C)c(C2C(=O)CC(CC(=O)NCCC#N)C2=O)c(C)c1 (stereo not shown) [Compound A86] | – | – | – | – | – | – | – | – | 30 | 0 | 50 | 10 | 40 | 0 | 80 | 20 | – |
